Results taken from the NIST ThermoML archive (doi:10.1016/j.fluid.2006.03.015).
Numbers after ± are expanded uncertainties.

Experiment: molar heat capacity at constant pressure
Details: 101.33 kPa, Liquid

CCCCn1cc[n+](C)c1.O=S(=O)([O-])C(F)(F)F [1-butyl-3-methylimidazolium trifluoromethanesulfonate]
Details	molar heat capacity at constant pressure [J/K/mol]
313.16 K, Large sample (1 g) DSC	448 ± 23
315.15 K, Small sample (50 mg) DSC	449 ± 23
318.15 K, Large sample (1 g) DSC	449 ± 23
320.15 K, Small sample (50 mg) DSC	451 ± 23
323.14 K, Large sample (1 g) DSC	451 ± 23
325.15 K, Small sample (50 mg) DSC	452 ± 23
328.12 K, Large sample (1 g) DSC	451 ± 23
328.15 K, modulated-temperature differential scanning calorimetry MDSC	443 ± 22
330.15 K, Small sample (50 mg) DSC	454 ± 24
333.15 K, modulated-temperature differential scanning calorimetry MDSC	446 ± 22
333.17 K, Large sample (1 g) DSC	450 ± 23
335.15 K, Small sample (50 mg) DSC	457 ± 24
338.15 K, Large sample (1 g) DSC	453 ± 24
338.15 K, modulated-temperature differential scanning calorimetry MDSC	448 ± 22
340.15 K, Small sample (50 mg) DSC	460 ± 24
343.14 K, Large sample (1 g) DSC	455 ± 24
343.15 K, modulated-temperature differential scanning calorimetry MDSC	450 ± 23
345.15 K, Small sample (50 mg) DSC	462 ± 24
348.15 K, modulated-temperature differential scanning calorimetry MDSC	453 ± 23
348.18 K, Large sample (1 g) DSC	456 ± 24
350.15 K, Small sample (50 mg) DSC	465 ± 24
353.15 K, modulated-temperature differential scanning calorimetry MDSC	454 ± 23
353.18 K, Large sample (1 g) DSC	459 ± 24
355.15 K, Small sample (50 mg) DSC	468 ± 24
358.13 K, Large sample (1 g) DSC	463 ± 24
358.15 K, modulated-temperature differential scanning calorimetry MDSC	458 ± 23
360.15 K, Small sample (50 mg) DSC	470 ± 24
363.14 K, Large sample (1 g) DSC	467 ± 24
363.15 K, modulated-temperature differential scanning calorimetry MDSC	460 ± 23
365.15 K, Small sample (50 mg) DSC	473 ± 25
368.14 K, Large sample (1 g) DSC	471 ± 24
368.15 K, modulated-temperature differential scanning calorimetry MDSC	463 ± 23
370.15 K, Small sample (50 mg) DSC	476 ± 25
373.13 K, Large sample (1 g) DSC	472 ± 25
373.15 K, modulated-temperature differential scanning calorimetry MDSC	464 ± 23
375.15 K, Small sample (50 mg) DSC	479 ± 25
378.12 K, Large sample (1 g) DSC	474 ± 25
378.15 K, modulated-temperature differential scanning calorimetry MDSC	468 ± 23
380.15 K, Small sample (50 mg) DSC	481 ± 25
383.15 K, modulated-temperature differential scanning calorimetry MDSC	468 ± 23
383.16 K, Large sample (1 g) DSC	477 ± 25
385.15 K, Small sample (50 mg) DSC	484 ± 25
388.15 K, Large sample (1 g) DSC	479 ± 25
388.15 K, modulated-temperature differential scanning calorimetry MDSC	471 ± 24
390.15 K, Small sample (50 mg) DSC	487 ± 25
393.13 K, Large sample (1 g) DSC	482 ± 25
393.15 K, modulated-temperature differential scanning calorimetry MDSC	472 ± 24
395.15 K, Small sample (50 mg) DSC	489 ± 25
398.15 K, modulated-temperature differential scanning calorimetry MDSC	475 ± 24
398.16 K, Large sample (1 g) DSC	484 ± 25
400.15 K, Small sample (50 mg) DSC	492 ± 26
403.14 K, Large sample (1 g) DSC	487 ± 25
403.15 K, modulated-temperature differential scanning calorimetry MDSC	476 ± 24
405.15 K, Small sample (50 mg) DSC	495 ± 26
408.15 K, modulated-temperature differential scanning calorimetry MDSC	477 ± 24
408.17 K, Large sample (1 g) DSC	489 ± 25
410.15 K, Small sample (50 mg) DSC	498 ± 26
413.14 K, Large sample (1 g) DSC	491 ± 26
413.15 K, modulated-temperature differential scanning calorimetry MDSC	481 ± 24
415.15 K, Small sample (50 mg) DSC	500 ± 26
418.17 K, Large sample (1 g) DSC	494 ± 26
420.15 K, Small sample (50 mg) DSC	503 ± 26
423.14 K, Large sample (1 g) DSC	494 ± 26
425.15 K, Small sample (50 mg) DSC	506 ± 26

C1CCOC1 [tetrahydrofuran]
Small sample (50 mg) DSC
Details	molar heat capacity at constant pressure [J/K/mol]
180.15 K	105.5 ± 5.5
185.15 K	105.6 ± 5.5
190.15 K	105.8 ± 5.5
195.15 K	106 ± 5.5
200.15 K	106.3 ± 5.5
205.15 K	106.5 ± 5.5
210.15 K	106.7 ± 5.5
215.15 K	107.2 ± 5.6
220.15 K	107.6 ± 5.6
225.15 K	107.9 ± 5.6
230.15 K	108.5 ± 5.6
235.15 K	109.2 ± 5.7
240.15 K	109.8 ± 5.7
245.15 K	110.6 ± 5.7
250.15 K	111.5 ± 5.8
255.15 K	112.4 ± 5.8
260.15 K	113.4 ± 5.9
265.15 K	114.4 ± 5.9
270.15 K	115.5 ± 6
275.15 K	116.6 ± 6.1
280.15 K	117.9 ± 6.1
285.15 K	119.2 ± 6.2
290.15 K	120.3 ± 6.3
295.15 K	121.7 ± 6.3
300.15 K	123.1 ± 6.4
305.15 K	124.5 ± 6.5
310.15 K	126 ± 6.5
315.15 K	127.3 ± 6.6
320.15 K	128.8 ± 6.7
325.15 K	130.5 ± 6.8

CCCCCCn1cc[n+](C)c1.O=S(=O)([O-])C(F)(F)F [1-hexyl-3-methylimidazolium trifluoromethanesulfonate]
Details	molar heat capacity at constant pressure [J/K/mol]
313.14 K, Large sample (1 g) DSC	517 ± 27
315.15 K, Small sample (50 mg) DSC	526 ± 27
318.15 K, Large sample (1 g) DSC	522 ± 27
320.15 K, Small sample (50 mg) DSC	528 ± 27
323.17 K, Large sample (1 g) DSC	525 ± 27
325.15 K, Small sample (50 mg) DSC	530 ± 28
328.13 K, Large sample (1 g) DSC	527 ± 27
328.15 K, modulated-temperature differential scanning calorimetry MDSC	519 ± 26
330.15 K, Small sample (50 mg) DSC	532 ± 28
333.15 K, Large sample (1 g) DSC	528 ± 27
333.15 K, modulated-temperature differential scanning calorimetry MDSC	522 ± 26
335.15 K, Small sample (50 mg) DSC	536 ± 28
338.15 K, modulated-temperature differential scanning calorimetry MDSC	524 ± 26
338.16 K, Large sample (1 g) DSC	531 ± 28
340.15 K, Small sample (50 mg) DSC	539 ± 28
343.15 K, modulated-temperature differential scanning calorimetry MDSC	528 ± 26
343.16 K, Large sample (1 g) DSC	534 ± 28
345.15 K, Small sample (50 mg) DSC	541 ± 28
348.15 K, modulated-temperature differential scanning calorimetry MDSC	530 ± 27
348.16 K, Large sample (1 g) DSC	535 ± 28
350.15 K, Small sample (50 mg) DSC	545 ± 28
353.15 K, modulated-temperature differential scanning calorimetry MDSC	532 ± 27
353.18 K, Large sample (1 g) DSC	539 ± 28
355.15 K, Small sample (50 mg) DSC	548 ± 28
358.12 K, Large sample (1 g) DSC	542 ± 28
358.15 K, modulated-temperature differential scanning calorimetry MDSC	535 ± 27
360.15 K, Small sample (50 mg) DSC	551 ± 29
363.15 K, modulated-temperature differential scanning calorimetry MDSC	538 ± 27
363.17 K, Large sample (1 g) DSC	545 ± 28
365.15 K, Small sample (50 mg) DSC	554 ± 29
368.15 K, Large sample (1 g) DSC	548 ± 28
368.15 K, modulated-temperature differential scanning calorimetry MDSC	540 ± 27
370.15 K, Small sample (50 mg) DSC	556 ± 29
373.15 K, modulated-temperature differential scanning calorimetry MDSC	543 ± 27
373.17 K, Large sample (1 g) DSC	550 ± 29
375.15 K, Small sample (50 mg) DSC	559 ± 29
378.15 K, modulated-temperature differential scanning calorimetry MDSC	544 ± 27
378.17 K, Large sample (1 g) DSC	552 ± 29
380.15 K, Small sample (50 mg) DSC	562 ± 29
383.15 K, modulated-temperature differential scanning calorimetry MDSC	547 ± 27
383.17 K, Large sample (1 g) DSC	555 ± 29
385.15 K, Small sample (50 mg) DSC	565 ± 29
388.15 K, modulated-temperature differential scanning calorimetry MDSC	549 ± 27
388.16 K, Large sample (1 g) DSC	558 ± 29
390.15 K, Small sample (50 mg) DSC	568 ± 30
393.15 K, Large sample (1 g) DSC	560 ± 29
393.15 K, modulated-temperature differential scanning calorimetry MDSC	552 ± 28
395.15 K, Small sample (50 mg) DSC	571 ± 30
398.15 K, modulated-temperature differential scanning calorimetry MDSC	554 ± 28
398.18 K, Large sample (1 g) DSC	562 ± 29
400.15 K, Small sample (50 mg) DSC	574 ± 30
403.15 K, modulated-temperature differential scanning calorimetry MDSC	556 ± 28
403.16 K, Large sample (1 g) DSC	564 ± 29
405.15 K, Small sample (50 mg) DSC	577 ± 30
408.13 K, Large sample (1 g) DSC	566 ± 29
408.15 K, modulated-temperature differential scanning calorimetry MDSC	557 ± 28
410.15 K, Small sample (50 mg) DSC	580 ± 30
413.15 K, modulated-temperature differential scanning calorimetry MDSC	562 ± 28
413.16 K, Large sample (1 g) DSC	569 ± 30
415.15 K, Small sample (50 mg) DSC	583 ± 30
418.15 K, Large sample (1 g) DSC	573 ± 30
420.15 K, Small sample (50 mg) DSC	586 ± 30
423.17 K, Large sample (1 g) DSC	572 ± 30
425.15 K, Small sample (50 mg) DSC	589 ± 31
